Tested on: pilocarpine induced status epilepticus (SE)
Experiment: Pilocarpine-induced status epilepticus in rats, cortical EEG power
Format: in vivo, Male Sprague-Dawley rats
Parameters: key to Treatment effect on EEG power vs vehicle, significance: * P < 0.05; ** P < 0.01; *** P < 0.001; **** P < 0.0001; ns = not significant
Conditions: 15 mg/kg IV
Protocol: This study was designed to determine the ability of a CAPTISOL-ganaxolone (GNX) formulation administered intravenously (IV) at 12 and 15 mg/kg to inhibit pilocarpine induced status epilepticus (SE). Allopregnanolone (Allo) (15 mg/kg; IV) was also evaluated for comparison. In this study, test drugs were administered either 15 or 60 minutes after onset of SE and compared to vehicle (30% Captisol).
Cortical EEG activity was recorded in rats before and after administration of pilocarpine to induce SE. Animals were pre-treated with LiCl to enhance and improve reliability of seizure induction and scopolamine to reduce peripheral cholinergic side effects of pilocarpine. EEG activity was recorded for 5 h after SE onset, and anticonvulsant activity was assessed by determining changes in EEG power over frequency ranges from 0.3 to 96 Hz.
Male Sprague-Dawley rats were used for the studies. Rats were surgically implanted with EEG electrodes and jugular vein catheters. The mean weight at the time of recording was 321+3 g (269-351 g).
EEG electrodes were surgically implanted in anesthetized rats. Animals were also treated with an anti-inflammatory anaelgesic (RIMADYL, (carprofen)) prior to surgery and a subcutaneous local anesthetic. Stainless steel screw electrodes chronically were implanted in the skull (0-80×¼″, Plastics-One, Roanoke, VA) such that the ends of the screws were flush with the inner skull surface. One electrode was located 3.0 mm anterior to bregma and 2 mm to the left of midline, and the second 4.0 mm posterior to bregma and 2.5 mm to the right of midline. The skull surface around the electrodes was sealed with super glue and dental acrylic, and the EEG electrode lead wires were inserted into a plastic pedestal mounted on the skull using dental acrylic. Wound edges were treated with triple antibiotic cream (bacitracin zinc, neomycin sulfate, polymyxin B sulfate; Walgreens). Following surgery, animals were administered antibiotic (ampicillin, 50 mg/kg IP at 0.4 mL/kg) and also received a chewable dose (˜10 mg) of Rimadyl following surgery. The animals were allowed to recover from EEG surgery for 1 week.
Rats were implanted with jugular-vein catheters (JVC) one week following EEG surgery. Rats were administered an anti-inflammatory/analgesic and then anesthetized and placed in a supine position. An incision was made in the skin on the right ventrolateral aspect of the neck to expose the external jugular vein which was then dissected free of surrounding fascia. A ligature was tied around the vein anteriorly to occlude blood flow returning to the heart. A second ligature was loosely tied around the vein posteriorly to create tension on the vessel during venotomy and catheter insertion. After incising the vein, a PE catheter (3Fr) was inserted into the vein and advanced approximately 30 mm towards the heart, positioning the tip at the junction of the precava and right atrium. After confirming patency of the catheter by blood withdrawal, the posterior ligature was tied off, and the catheter flushed with a “heparin-lock” solution (5 units heparin/ml saline) and plugged with a sterilized stainless steel pin. The catheter was then exteriorized by tunneling through the subcutaneous tissue to exit posterior to the head between the shoulder blades. Lastly, after suturing the catheter to the skin, all wounds were closed using sutures or wound clips. Immediately following surgery, the animals were awakened to assess catheter patency. Animals also received a chewable dose (˜10 mg) of Rimadyl following surgery to minimize pain and inflammation.
Animals were allowed a 1-week recovery time following JVC surgery. Jugular vein catheters were flushed daily with a 0.1 mL of heparin solution (5 units/mL) to maintain patency. On the day of surgery, the flushing solution contained ampicillin sulbactam (50 mg/kg). […]

CC(=O)[C@H]1CC[C@H]2[C@@H]3CC[C@H]4C[C@H](O)CC[C@]4(C)[C@H]3CC[C@]12C [Allopregnanolone]
reduction in SE (60′ dosing delay, 0-5 and 5-10 Hz): strong reduction in SE in the first 15′ after dosing | Treatment effect on EEG power vs vehicle, significance (15 min post SE onset, 0-5 Hz, 0-15 min. post drug): **** (**** P < 0.0001) | Treatment effect on EEG power vs vehicle, significance (15 min post SE onset, 0-5 Hz, 1-2 hrs post drug): *** (*** P < 0.001) | Treatment effect on EEG power vs vehicle, significance (15 min post SE onset, 0-5 Hz, 2-3 hrs post drug): * (* P < 0.05) | Treatment effect on EEG power vs vehicle, significance (15 min post SE onset, 0-5 Hz, 3-5 hrs post drug): ns | Treatment effect on EEG power vs vehicle, significance (15 min post SE onset, 0-5 Hz, 15-30 min post drug): **** (**** P < 0.0001) | Treatment effect on EEG power vs vehicle, significance (15 min post SE onset, 0-5 Hz, 30-60 min post drug): **** (**** P < 0.0001) | Treatment effect on EEG power vs vehicle, significance (15 min post SE onset, 5-10 Hz, 0-15 min. post drug): **** (**** P < 0.0001) | Treatment effect on EEG power vs vehicle, significance (15 min post SE onset, 5-10 Hz, 1-2 hrs post drug): *** (*** P < 0.001) | Treatment effect on EEG power vs vehicle, significance (15 min post SE onset, 5-10 Hz, 2-3 hrs post drug): ns | Treatment effect on EEG power vs vehicle, significance (15 min post SE onset, 5-10 Hz, 3-5 hrs post drug): ns | Treatment effect on EEG power vs vehicle, significance (15 min post SE onset, 5-10 Hz, 15-30 min post drug): **** (**** P < 0.0001) | Treatment effect on EEG power vs vehicle, significance (15 min post SE onset, 5-10 Hz, 30-60 min post drug): **** (**** P < 0.0001) | Treatment effect on EEG power vs vehicle, significance (15 min post SE onset, 10-30 Hz, 0-15 min. post drug): **** (**** P < 0.0001) | Treatment effect on EEG power vs vehicle, significance (15 min post SE onset, 10-30 Hz, 1-2 hrs post drug): ** (** P < 0.01) | Treatment effect on EEG power vs vehicle, significance (15 min post SE onset, 10-30 Hz, 2-3 hrs post drug): ns | Treatment effect on EEG power vs vehicle, significance (15 min post SE onset, 10-30 Hz, 3-5 hrs post drug): ns | Treatment effect on EEG power vs vehicle, significance (15 min post SE onset, 10-30 Hz, 15-30 min post drug): **** (**** P < 0.0001) | Treatment effect on EEG power vs vehicle, significance (15 min post SE onset, 10-30 Hz, 30-60 min post drug): *** (*** P < 0.001) | Treatment effect on EEG power vs vehicle, significance (15 min post SE onset, 30-50 Hz, 0-15 min. post drug): **** (**** P < 0.0001) | Treatment effect on EEG power vs vehicle, significance (15 min post SE onset, 30-50 Hz, 1-2 hrs post drug): ns | Treatment effect on EEG power vs vehicle, significance (15 min post SE onset, 30-50 Hz, 2-3 hrs post drug): ns | Treatment effect on EEG power vs vehicle, significance (15 min post SE onset, 30-50 Hz, 3-5 hrs post drug): ns | Treatment effect on EEG power vs vehicle, significance (15 min post SE onset, 30-50 Hz, 15-30 min post drug): **** (**** P < 0.0001) | Treatment effect on EEG power vs vehicle, significance (15 min post SE onset, 30-50 Hz, 30-60 min post drug): *** (*** P < 0.001) | Treatment effect on EEG power vs vehicle, significance (15 min post SE onset, 50-70 Hz, 0-15 min. post drug): *** (*** P < 0.001) | Treatment effect on EEG power vs vehicle, significance (15 min post SE onset, 50-70 Hz, 1-2 hrs post drug): ns | Treatment effect on EEG power vs vehicle, significance (15 min post SE onset, 50-70 Hz, 2-3 hrs post drug): ns | Treatment effect on EEG power vs vehicle, significance (15 min post SE onset, 50-70 Hz, 3-5 hrs post drug): ns | Treatment effect on EEG power vs vehicle, significance (15 min post SE onset, 50-70 Hz, 15-30 min post drug): *** (*** P < 0.001) | Treatment effect on EEG power vs vehicle, significance (15 min post SE onset, 50-70 Hz, 30-60 min post drug): ** (** P < 0.01) | Treatment effect on EEG power vs vehicle, significance (15 min post SE onset, 70-96 Hz, 0-15 min. post drug): *** (*** P < 0.001) | Treatment effect on EEG power vs vehicle, significance (15 min post SE onset, 70-96 Hz, 1-2 hrs post drug): ns | Treatment effect on EEG power vs vehicle, significance (15 min post SE onset, 70-96 Hz, 2-3 hrs post drug): ns | Treatment effect on EEG power vs vehicle, significance (15 min post SE onset, 70-96 Hz, 3-5 hrs post drug): ns | Treatment effect on EEG power vs vehicle, significance (15 min post SE onset, 70-96 Hz, 15-30 min post drug): *** (*** P < 0.001) | Treatment effect on EEG power vs vehicle, significance (15 min post SE onset, 70-96 Hz, 30-60 min post drug): ** (** P < 0.01) | reduction in SE (15 minutes post-seizure onset): strong reduction in SE up to 1 h post dosing | Treatment effect on EEG power vs vehicle, significance (60 min post SE onset, 0-5 Hz, 0-15 min. post drug): ** (** P < 0.01) | Treatment effect on EEG power vs vehicle, significance (60 min post SE onset, 0-5 Hz, 1-2 hrs post drug): ns | Treatment effect on EEG power vs vehicle, significance (60 min post SE onset, 0-5 Hz, 2-3 hrs post drug): ns | Treatment effect on EEG power vs vehicle, significance (60 min post SE onset, 0-5 Hz, 3-5 hrs post drug): ns | Treatment effect on EEG power vs vehicle, significance (60 min post SE onset, 0-5 Hz, 15-30 min post drug): ns | Treatment effect on EEG power vs vehicle, significance (60 min post SE onset, 0-5 Hz, 30-60 min post drug): Ns | Treatment effect on EEG power vs vehicle, significance (60 min post SE onset, 5-10 Hz, 0-15 min. post drug): ** (** P < 0.01) | Treatment effect on EEG power vs vehicle, significance (60 min post SE onset, 5-10 Hz, 1-2 hrs post drug): ns | Treatment effect on EEG power vs vehicle, significance (60 min post SE onset, 5-10 Hz, 2-3 hrs post drug): ns | Treatment effect on EEG power vs vehicle, significance (60 min post SE onset, 5-10 Hz, 3-5 hrs post drug): ns | Treatment effect on EEG power vs vehicle, significance (60 min post SE onset, 5-10 Hz, 15-30 min post drug): ns | Treatment effect on EEG power vs vehicle, significance (60 min post SE onset, 5-10 Hz, 30-60 min post drug): Ns | Treatment effect on EEG power vs vehicle, significance (60 min post SE onset, 10-30 Hz, 0-15 min. post drug): ns | Treatment effect on EEG power vs vehicle, significance (60 min post SE onset, 10-30 Hz, 1-2 hrs post drug): ns | Treatment effect on EEG power vs vehicle, significance (60 min post SE onset, 10-30 Hz, 2-3 hrs post drug): ns | Treatment effect on EEG power vs vehicle, significance (60 min post SE onset, 10-30 Hz, 3-5 hrs post drug): ns | Treatment effect on EEG power vs vehicle, significance (60 min post SE onset, 10-30 Hz, 15-30 min post drug): ns | Treatment effect on EEG power vs vehicle, significance (60 min post SE onset, 10-30 Hz, 30-60 min post drug): Ns | Treatment effect on EEG power vs vehicle, significance (60 min post SE onset, 30-50 Hz, 0-15 min. post drug): ns | Treatment effect on EEG power vs vehicle, significance (60 min post SE onset, 30-50 Hz, 1-2 hrs post drug): ns | Treatment effect on EEG power vs vehicle, significance (60 min post SE onset, 30-50 Hz, 2-3 hrs post drug): ns | Treatment effect on EEG power vs vehicle, significance (60 min post SE onset, 30-50 Hz, 3-5 hrs post drug): ns | Treatment effect on EEG power vs vehicle, significance (60 min post SE onset, 30-50 Hz, 15-30 min post drug): ns | Treatment effect on EEG power vs vehicle, significance (60 min post SE onset, 30-50 Hz, 30-60 min post drug): Ns | Treatment effect on EEG power vs vehicle, significance (60 min post SE onset, 50-70 Hz, 0-15 min. post drug): ns | Treatment effect on EEG power vs vehicle, significance (60 min post SE onset, 50-70 Hz, 1-2 hrs post drug): ns | Treatment effect on EEG power vs vehicle, significance (60 min post SE onset, 50-70 Hz, 2-3 hrs post drug): ns | Treatment effect on EEG power vs vehicle, significance (60 min post SE onset, 50-70 Hz, 3-5 hrs post drug): ns | Treatment effect on EEG power vs vehicle, significance (60 min post SE onset, 50-70 Hz, 15-30 min post drug): ns | Treatment effect on EEG power vs vehicle, significance (60 min post SE onset, 50-70 Hz, 30-60 min post drug): Ns | Treatment effect on EEG power vs vehicle, significance (60 min post SE onset, 70-96 Hz, 0-15 min. post drug): ns | Treatment effect on EEG power vs vehicle, significance (60 min post SE onset, 70-96 Hz, 1-2 hrs post drug): ns | Treatment effect on EEG power vs vehicle, significance (60 min post SE onset, 70-96 Hz, 2-3 hrs post drug): ns | Treatment effect on EEG power vs vehicle, significance (60 min post SE onset, 70-96 Hz, 3-5 hrs post drug): ns | Treatment effect on EEG power vs vehicle, significance (60 min post SE onset, 70-96 Hz, 15-30 min post drug): ns | Treatment effect on EEG power vs vehicle, significance (60 min post SE onset, 70-96 Hz, 30-60 min post drug): Ns
